Measured values published in patent publication US6521600B1, “Compound, WF002, production thereof and use thereof” (Fujisawa Pharmaceutical Co., Ltd., priority 1998, dated 2003).

How the values were obtained:
[1] = system: Aspergillus fumigatus FP1305; assay: Antimicrobial activity, serial broth dilution method (MEC); type: cell-based; settings: yeast nitrogen base dextrose medium, 37° C., 24 hours, microscopic observation
Procedure: (§1) Test 1 (Antimicrobial Activity) Antimicrobial activity of WF002 was determined by a serial broth dilution method using 96-well microtiter plate in 100 μl of yeast nitrogen base dextrose medium. The inoculum was adjusted to 1×10^5 colony forming units/ml. Candida albicans and Aspergillus fumigatus were cultured at 37° C. for 24 hours and Cryptococcus neoformans was cultured at 37° C. for 48 hours in 5% CO2 incubator. After incubation, the growth inhibition of microorganism in each well was determined by microscopic observation. The results were shown as MEC (minimum effective concentration: μg/ml) value (Table 2).

Candida albicans FP633 = assay: as above; type: cell-based; settings: yeast nitrogen base dextrose medium, 37° C., 24 hours, microscopic observation
Procedure: as §1

[2] = system: Cryptococcus neoformans YC203; assay: as above; type: cell-based; settings: yeast nitrogen base dextrose medium, 37° C., 48 hours, 5% CO2, microscopic observation
Procedure: as §1

Solubility in solvents = type: physicochemical

For `CC(=O)OC1CC2(C)C(CCC3(C)C2CCC2=C4C(=O)CC5C(C)COC(O)C45CCC23C)C(C)(C)C1OC1OC(CO)C(O)C(O)C1O` (centres unmarked) [WF002], the “MEC (minimum effective concentration)” value [1] was 0.04 µg/mL, the “MEC (minimum effective concentration)” value (Candida albicans FP633) was 6.25 µg/mL and the “MEC (minimum effective concentration)” value [2] was 50 µg/mL. For the same molecule, the Solubility (Solubility in solvents; methanol, ethyl acetate, dimethylsulfoxide) was “Soluble” and the Solubility (Solubility in solvents; water, n-hexane) was “Insoluble”.
